# Measurements reported in US8785600B2, “Anti-GCC antibody molecules and related compositions and methods” (Millennium Pharmaceuticals, Inc., priority 2009, dated 2014).
# Where “and” joins values, the source holds several entries; their conditions need not be identical. Identical values can stand only once.
# How the values were obtained:
# [1] = system: GCC-expressing cells (T84 cells compared to MCF-7 cells; vector control cells); test: Internalization assay (immunofluorescence microscopy); format: cell-based, human; settings: 10 μg/ml, 37° C.
# Method: Internalization of anti-GCC antibody molecules was tested in both GCC-expressing cells and vector control cells, using immunofluorescence microscopy. Cells were grown on coverslips and placed on ice for 10 minutes prior to incubation with 10 μg/ml antibody in cold culture medium for 20 minutes on ice. For internalization, antibody-containing medium was replaced with fresh culture medium and the cells were shifted to 37° C. for 2-3 hours or maintained on ice. After rinsing in PBS and a brief fixation in 4% paraformaldehyde at room temperature, cells were permeabilized for 15 min in 0/5% TRITON X-100. The localization of the test antibody was determined using a fluorescently labeled anti-IgG antibody by laser scanning confocal microscopy. Antibody molecules localized to the cell surface of GCC-expressing cells when on ice.
# Most of the antibodies generated herein were tested in a number of the assays described above. (T84=human colon tumor cells, MCF7=human breast tumor cells, WB=western blot, IP=immunoprecipitation, IHC=immunohistochemistry; internalization used T84 cells compared to MCF-7 cells)
# GCC-ECD-Fc (TOK107-hIg) = test: BIACORE T100 affinity measurement; format: binding, human; settings: for ka (M^−1s^−1) / kd (s^−1): Avg. (95% Conf. Int.); for ka / kd: single replicates, immobilized mAb, 22° C.
# Sequence of GCC-ECD-Fc (TOK107-hIg) (as listed by the source): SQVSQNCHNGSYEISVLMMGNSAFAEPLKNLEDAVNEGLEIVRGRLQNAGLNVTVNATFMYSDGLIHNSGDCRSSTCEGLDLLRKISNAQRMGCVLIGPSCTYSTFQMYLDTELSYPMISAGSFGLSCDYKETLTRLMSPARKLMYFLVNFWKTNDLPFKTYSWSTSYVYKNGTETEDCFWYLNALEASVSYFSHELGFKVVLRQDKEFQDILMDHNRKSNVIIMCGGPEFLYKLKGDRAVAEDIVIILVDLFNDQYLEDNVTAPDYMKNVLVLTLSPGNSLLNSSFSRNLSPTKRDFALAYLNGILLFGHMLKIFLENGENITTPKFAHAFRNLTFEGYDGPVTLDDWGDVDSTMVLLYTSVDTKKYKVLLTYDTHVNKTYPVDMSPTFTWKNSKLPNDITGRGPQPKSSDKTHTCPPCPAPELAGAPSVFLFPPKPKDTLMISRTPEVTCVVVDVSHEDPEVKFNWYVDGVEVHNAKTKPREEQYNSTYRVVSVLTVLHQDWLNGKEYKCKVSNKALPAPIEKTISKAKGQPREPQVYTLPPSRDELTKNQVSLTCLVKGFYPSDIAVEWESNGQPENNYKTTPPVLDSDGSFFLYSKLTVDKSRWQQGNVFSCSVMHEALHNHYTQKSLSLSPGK
# Method: Step 1: MAb 5F9 (Prep A) was diluted to 20 μg/mL in 10 mM sodium acetate, pH 4.0 and Reference 5F9 MAb (Prep B) was diluted to 10 μg/mL in 10 mM sodium acetate, pH 4.0. Each mAb was covalently immobilized to several CM4 BIACORE chips using standard amine coupling. For each CM4 chip prepared, Prep A 5F9 was immobilized over two flow cells at around 75-100 RU while Prep B 5F9 was immobilized to one flow cell at around 70-80 RU. The remaining fourth flow cell of each CM4 chip was used as the reference flow cell.
# Step 2: The stock concentration of GCC-ECD-Fc (TOK107-hIg) was determined using the methods detailed by Pace et al. in Protein Science, 4:2411 (1995), and Pace and Grimsley in Current Protocols in Protein Science 3.1.1-3.1.9 (2003).
# Step 3: For each prepared CM4 chip described in Step 1, GCC-ECD-Fc was injected for 2 minutes at a concentration range of 202 nM-1.6 nM (2× serial dilution) followed by a 7 minute dissociation. Samples were randomly injected in triplicate with several buffer inject cycles interspersed for double referencing. […] A flow rate of 100 μL/min was used for all experiments and all surfaces were regenerated with a 20 second pulse of 10 mM Glycine-HCl (pH 2.0). All samples were prepared in the running buffer which was Hepes-buffered saline, 0.005% polysorbate 20, pH 7.4 (HBS-P) with 100 μg/mL of BSA added.
# Step 4: All sensorgram (plot of surface plasmon resonance vs time) data were processed with Scrubber 2.0 software (BioLogic Software, Campbell, Australia) and globally fit to a 1:1 interaction model including a term for the mass transport constant km using CLAMP™ software (Myszka and Morton Trends Biochem. Sci. 23:149-150 (1998)).
# The 1:1 model provided a very good fit to the data as long as the mAb immobilization levels were kept low enough so that the Rmax resulting from the global analysis of the sensorgram data was at least below 12 RU for each surface. […] Data from two flow cells of GCC-ECD-Fc binding to Prep A 5F9 from the same CM4 chip were simultaneously fit whenever possible, however. […] This isn't surprising due to the fact that GCC-ECD-Fc is a bivalent construct and a higher surface density of immobilized mAb most likely increases the probability that the GCC-ECD-Fc binds avidly to the surface. Replicates reported for this study include only those data that fit well to the 1:1 interaction model. The resulting KD's and rate constants of all replicates for Prep A 5F9 and the Prep B reference mAb are listed in Table 9 and Table 10, respectively.
# [2] = target: T1, GCC ECD truncation mutants expressed in 293 cells (Homo sapiens, UniProt P25092); test: Binding to GCC ECD truncation mutants (IP / Western blot); settings: Δ1-32
# T1 construct: Truncation mutants of the GCC ECD were generated (FL mature peptide and 8 truncations); expressed in transfected cells; host or cells: 293 cells (lysates, immunoprecipitation then anti-FLAG western blot)
# T1 sequence (P25092 33-430, stated change not applied): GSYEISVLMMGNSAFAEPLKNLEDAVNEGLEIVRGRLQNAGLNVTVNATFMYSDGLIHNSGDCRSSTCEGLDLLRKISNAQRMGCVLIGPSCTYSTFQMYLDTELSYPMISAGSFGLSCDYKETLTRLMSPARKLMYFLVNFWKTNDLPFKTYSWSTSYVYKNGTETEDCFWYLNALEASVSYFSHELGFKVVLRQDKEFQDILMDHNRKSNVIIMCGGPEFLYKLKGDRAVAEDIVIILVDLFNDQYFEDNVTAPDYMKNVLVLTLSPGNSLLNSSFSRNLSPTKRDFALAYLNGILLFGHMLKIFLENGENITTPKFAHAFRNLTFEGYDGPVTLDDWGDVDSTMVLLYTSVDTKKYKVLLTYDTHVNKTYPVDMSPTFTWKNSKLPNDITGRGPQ
# CT26 hGCC/luc #32 cells = test: Pilot efficacy study with naked antibody in CT26 hGCC/luc #32 disseminated model; settings: for Lung weight, T test P vs. vehicle: end of study
substance,measurement,setting,value
"5F9: Human anti-GCC mAb (IgG2, kappa) of hybridoma 5F9, ATCC PTA-8132; VH SEQ ID NO:18, VL SEQ ID NO:20; also engineered as IgG1",Internalization (localization of antibody by confocal microscopy),[1],"punctuate staining within the cell membrane, indicative of internalization"
same,ka (M^−1s^−1),GCC-ECD-Fc (TOK107-hIg); listed as Prep A 5F9,1.10 (0.13) × 10^5 M^−1s^−1
same,kd (s^−1),GCC-ECD-Fc (TOK107-hIg); listed as Prep A 5F9,1.46 (0.59) × 10^−5 s^−1
same,ka (M^−1s^−1),GCC-ECD-Fc (TOK107-hIg); listed as Prep B 5F9,1.07 (0.25) × 10^5 M^−1s^−1
same,kd (s^−1),GCC-ECD-Fc (TOK107-hIg); listed as Prep B 5F9,1.13 (0.54) × 10^−5 s^−1
same,ka,GCC-ECD-Fc (TOK107-hIg); listed as Prep A 5F9,96400 M⁻¹ s⁻¹ and 106000 M⁻¹ s⁻¹ and 120000 M⁻¹ s⁻¹ and 107000 M⁻¹ s⁻¹ and 122000 M⁻¹ s⁻¹
same,kd,GCC-ECD-Fc (TOK107-hIg); listed as Prep A 5F9,1.77e-05 s⁻¹ and 1.19e-05 s⁻¹ and 1.1e-05 s⁻¹ and 2.15e-05 s⁻¹ and 1.11e-05 s⁻¹
same,ka,GCC-ECD-Fc (TOK107-hIg); listed as Prep B 5F9,96800 M⁻¹ s⁻¹ and 120000 M⁻¹ s⁻¹ and 90900 M⁻¹ s⁻¹ and 121000 M⁻¹ s⁻¹
same,kd,GCC-ECD-Fc (TOK107-hIg); listed as Prep B 5F9,7.64e-06 s⁻¹ and 1.24e-05 s⁻¹ and 9.57e-06 s⁻¹ and 1.54e-05 s⁻¹
same,Binding to GCC ECD truncation mutant,[2],binds cells with the Δ1-32 mutation
same,"Lung weight, T test P vs. vehicle",CT26 hGCC/luc #32 cells; 10 mg/kg,< 0.01
same,In vivo MRI of lungs,CT26 hGCC/luc #32 cells; 40 mg/kg,normal lung presentation was seen without evidence of tumor
same,T/C (treatment/control),"CT26 hGCC/luc #32 cells; 40 mg/kg and 10 mg/kg, 1×10^5 cells/mouse, day 34p.i, vs vehicle",0.04 to 0.05
same,"Lung weight, T test P vs. vehicle",CT26 hGCC/luc #32 cells; 40 mg/kg,< 0.05
same,T/C compared to the 209 group,"CT26 hGCC/luc #32 cells; 1×10^5 cells/mouse, day 34p.i",0.18 to 0.14
same,Benefit in 5×10^5 groups,CT26 hGCC/luc #32 cells; 5×10^5 cells/mouse,No benefit was seen
